This passage reports EC50 results from patent publication US20100063047A1 (KALYPSYS, INC., priority 2008, published 2010).

A word on the EC50: it is the concentration at which the effect is half-maximal.

Bounds are passed on as bounds.

T1 sequence (P35367 whole entry): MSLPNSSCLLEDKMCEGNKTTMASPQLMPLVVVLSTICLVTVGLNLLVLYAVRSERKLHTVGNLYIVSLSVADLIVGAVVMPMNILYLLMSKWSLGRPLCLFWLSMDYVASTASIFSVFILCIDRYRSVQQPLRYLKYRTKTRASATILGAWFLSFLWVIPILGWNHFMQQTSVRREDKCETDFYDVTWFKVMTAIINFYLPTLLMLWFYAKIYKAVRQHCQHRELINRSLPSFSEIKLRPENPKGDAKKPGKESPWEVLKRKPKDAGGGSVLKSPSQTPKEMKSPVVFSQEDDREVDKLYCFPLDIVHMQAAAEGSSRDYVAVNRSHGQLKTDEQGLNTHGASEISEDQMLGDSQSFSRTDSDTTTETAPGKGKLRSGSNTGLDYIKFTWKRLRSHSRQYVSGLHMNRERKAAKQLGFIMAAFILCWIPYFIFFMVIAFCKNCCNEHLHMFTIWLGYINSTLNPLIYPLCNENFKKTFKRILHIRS

One assay addresses T1, human H1 (Homo sapiens, UniProt P35367).
T1 construct: host or cells: CHO-K1, also expressing mitochondrion-targeted aequorin
Briefly: In vitro histamine H1 receptor cell-based aequorin bioluminescence antagonist assay.
Details: not given
As for the experimental part:
In vitro Histamine Receptor Cell-Based Assays
The cell-based assays utilize an aequorin dependent bioluminescence signal. Doubly-transfected, stable CHO—K1 cell lines expressing human H1 or H4, mitochondrion-targeted aequorin, and (H4 only) human G protein Gα16 are obtained from Perkin-Elmer. Cells are maintained in F12 (Ham's) growth medium, containing 10% (vol./vol.) fetal bovine serum, penicillin (100 IU/mL), streptomycin (0.1 mg/mL), zeocin (0.25 mg/mL) and geneticin (0.40 mg/mL). Cell media components are from Invitrogen, Inc. One day prior to assay, the growth medium is replaced with the same, excluding zeocin and geneticin.
For assay preparation, growth medium is aspirated, and cells are rinsed with calcium-free, magnesium-free phosphate-buffered saline, followed by two to three minute incubation in Versene (Invitrogen, Inc.) at 37° C. Assay medium (DMEM:F12 [50:50], phenol-red free, containing 1 mg/mL protease-free bovine serum albumin) is added to collect the released cells, which are then centrifuged. The cell pellet is re-suspended in assay medium, centrifuged once more, and re-suspended in assay medium to a final density of 5×10^6 cells/mL. Coelenterazine-h dye (500 μM in ethanol) is added to a final concentration of 5 μM, and mixed immediately. The conical tube containing the cells is then wrapped with foil to protect the light-sensitive dye. The cells are incubated for four hours further at room temperature (approximately 21° C.) with end-over-end rotation to keep them in suspension.
Just before assay, the dye-loaded cells are diluted to 0.75×10^6 cells/mL (H1 receptor) or 1.5×10^6 cells/mL (H4 receptor) with additional assay medium. Cells are dispensed to 1536 well micro-titer plates at 3 μL/well. To assay receptor antagonism, 60 nl of 100× concentration test compounds in 100% dimethyl sulfoxide (DMSO) are dispensed to the wells, one compound per well, by passive pin transfer, and the plates are incubated for 15 minutes at room temperature. […] The pipette dispenses 3 μL/well of agonist (histamine, at twice the final concentration, where final concentration is a previously determined EC80) in assay medium, with concurrent bioluminescence detection. Agonist activity of test compounds is excluded by separate assays that measure response to test compounds immediately, without added histamine agonist.
CCD image capture on the Lumilux includes a 5 second baseline read prior to agonist addition, and generally a 40 second read per plate after agonist addition. A decrease in bioluminescence signal (measured either as area-under-the-curve, or maximum signal amplitude minus minimum signal amplitude) correlates with receptor antagonism in a dose dependent manner. The negative control is DMSO lacking any test compound. For antagonist assays, the positive controls are diphenhydramine (2-Diphenylmethoxy-N,N-dimethylethylamine, 10 μM final concentration, H1 receptor) or JNJ7777120 (1-[(5-Chloro-1H-indol-2-yl)carbonyl]-4-methyl-piperazine, 10 μM final concentration, H4 receptor). Efficacy is measured as a percentage of positive control activity.
`COc1ccc(OC)c(CCNc2ncnc3scc(C)c23)c1` [Example 169, N-[2-(2,5-dimethoxyphenyl)ethyl]-5-methylthieno[2,3-d]pyrimidin-4-amine]: the EC50 is > 10 µM.

Staying with this assay, now noted: CHO-K1 cells expressing human H1 and aequorin; histamine at EC80; read-out: H1 Antagonist EC50.
For the compound `Cc1csc2ncnc(NCCc3c[nH]c4ccccc34)c12` [Example 155, N-[2-(1H-indol-3-yl)ethyl]-5-methylthieno[2,3-d]pyrimidin-4-amine], the 50% effective concentration (EC50) was > 10 µM.

With `Cc1csc2ncnc(NCc3ccc(C(C)(C)C)cc3)c12` [Example 156, N-[(4-tert-butylphenyl)methyl]-5-methylthieno[2,3-d]pyrimidin-4-amine], the concentration giving a half-maximal response (EC50) is > 10 µM.

As for `Cc1csc2ncnc(NCCCN(C)c3ccccc3)c12` [Example 157, N-methyl-N-[3-({5-methylthieno[2,3-d]pyrimidin-4-yl}amino)propyl]aniline], the EC50 is > 10 µM.

Turning to `COc1cc(CNc2ncnc3scc(C)c23)cc(OC)c1` [Example 159, N-[(3,5-dimethoxyphenyl)methyl]-5-methylthieno[2,3-d]pyrimidin-4-amine], the EC50 is > 10 µM.

On to `COc1ccc(CNc2ncnc3scc(C)c23)cc1OC` [Example 160, N-[(3,4-dimethoxyphenyl)methyl]-5-methylthieno[2,3-d]pyrimidin-4-amine], for which the EC50 was > 10 µM.

Consider `CCOC(=O)N1CCC(Nc2ncnc3scc(C)c23)CC1` [Example 162, ethyl 4-({5-methylthieno[2,3-d]pyrimidin-4-yl}amino)piperidine-1-carboxylate], for which the concentration giving a half-maximal response (EC50) was > 10 µM.

For the compound `Cc1csc2ncnc(NCCCNC(=O)OC(C)(C)C)c12` [Example 163, tert-butyl N-[3-({5-methylthieno[2,3-d]pyrimidin-4-yl}amino)propyl]carbamate], the concentration for a half-maximal effect (EC50) was > 10 µM.

Consider `Cc1csc2ncnc(NCc3ccc(C(F)(F)F)cc3)c12` [Example 164, 5-methyl-N-{[4-(trifluoromethyl)phenyl]methyl}thieno[2,3-d]pyrimidin-4-amine], for which the 50% effective concentration (EC50) is > 10 µM.

As to `Cc1csc2ncnc(NCc3cccc(C(F)(F)F)c3)c12` [Example 165, 5-methyl-N-{[3-(trifluoromethyl)phenyl]methyl}thieno[2,3-d]pyrimidin-4-amine], the EC50 is > 10 µM.

`Cc1csc2ncnc(NCc3ccc(Cl)c(Cl)c3)c12` [Example 166, N-[(3,4-dichlorophenyl)methyl]-5-methylthieno[2,3-d]pyrimidin-4-amine]: the EC50 is > 10 µM.

Regarding `Cc1csc2ncnc(NCc3ccc(Cl)cc3Cl)c12` [Example 167, N-[(2,4-dichlorophenyl)methyl]-5-methylthieno[2,3-d]pyrimidin-4-amine], the EC50 is > 10 µM.

In the case of `Cc1csc2ncnc(NC3CCN(Cc4ccccc4)C3)c12` (centres unmarked) [Example 168, 1-benzyl-N-{5-methylthieno[2,3-d]pyrimidin-4-yl}pyrrolidin-3-amine], the EC50 is > 10 µM.

`Cc1csc2ncnc(NCCc3ccc(S(N)(=O)=O)cc3)c12` [Example 173, 4-[2-({5-methylthieno[2,3-d]pyrimidin-4-yl}amino)ethyl]benzene-1-sulfonamide]: the 50% effective concentration (EC50) was > 10 µM.

In the case of `Cc1csc2ncnc(NCCc3ccc4c(c3)OCO4)c12` [Example 175, N-[2-(2H-1,3-benzodioxol-5-yl)ethyl]-5-methylthieno[2,3-d]pyrimidin-4-amine], the EC50 was > 10 µM.

Turning to `Cc1csc2ncnc(NCCC(c3ccccc3)c3ccccc3)c12` [Example 176, N-(3,3-diphenylpropyl)-5-methylthieno[2,3-d]pyrimidin-4-amine], the EC50 is > 10 µM.

Turning to `CCCCN(C)c1ncnc2scc(C)c12` [Example 187, N-butyl-N,5-dimethylthieno[2,3-d]pyrimidin-4-amine], the concentration giving a half-maximal response (EC50) is > 10 µM.

Turning to `Cc1csc2ncnc(N3CCSC3)c12` [Example 189, 3-{5-methylthieno[2,3-d]pyrimidin-4-yl}-1,3-thiazolidine], the EC50 is > 10 µM.

As for `Cc1csc2ncnc(N3CCCCC3C)c12` (centres unmarked) [Example 190, 2-methyl-1-{5-methylthieno[2,3-d]pyrimidin-4-yl}piperidine], the half-maximal effective concentration (EC50) was > 10 µM.

As for `Cc1csc2ncnc(N3CCN(C)CC3)c12` [Example 192, 1-methyl-4-{5-methylthieno[2,3-d]pyrimidin-4-yl}piperazine], the 50% effective concentration (EC50) was > 10 µM.

Turning to `COC[C@@H]1CCCN1c1ncnc2scc(C)c12` [Example 205, (2S)-2-(methoxymethyl)-1-{5-methylthieno[2,3-d]pyrimidin-4-yl}pyrrolidine], the concentration for a half-maximal effect (EC50) was > 10 µM.

In the case of `Cc1csc2ncnc(N3CCCCC3CO)c12` (centres unmarked) [Example 206, (1-{5-methylthieno[2,3-d]pyrimidin-4-yl}piperidin-2-yl)methanol], the EC50 was > 10 µM.

Consider `Cc1csc2ncnc(N3CCCCC3CCO)c12` (centres unmarked) [Example 215, 2-(1-{5-methylthieno[2,3-d]pyrimidin-4-yl}piperidin-2-yl)ethan-1-ol], for which the EC50 is > 10 µM.

Turning to `Cc1csc2ncnc(N3CCc4ccccc4C3)c12` [Example 216, 2-{5-methylthieno[2,3-d]pyrimidin-4-yl}-1,2,3,4-tetrahydroisoquinoline], the EC50 is > 10 µM.

Turning to `CCN(Cc1ccccc1)c1ncnc2scc(C)c12` [Example 217, N-benzyl-N-ethyl-5-methylthieno[2,3-d]pyrimidin-4-amine], the 50% effective concentration (EC50) was > 10 µM.

For `COC(=O)C1CCN(c2ncnc3scc(C)c23)CC1` [Example 224, methyl 1-{5-methylthieno[2,3-d]pyrimidin-4-yl}piperidine-4-carboxylate], the EC50 was > 10 µM.

Regarding `Cc1csc2ncnc(N(CCO)Cc3ccccc3)c12` [Example 226, 2-[benzyl({5-methylthieno[2,3-d]pyrimidin-4-yl})amino]ethan-1-ol], the EC50 was > 10 µM.

In the case of `CCCCN(Cc1ccccc1)c1ncnc2scc(C)c12` [Example 235, N-benzyl-N-butyl-5-methylthieno[2,3-d]pyrimidin-4-amine], the concentration for a half-maximal effect (EC50) was > 10 µM.

`Cc1csc2ncnc(N3CCC(Cc4ccccc4)CC3)c12` [Example 240, 4-benzyl-1-{5-methylthieno[2,3-d]pyrimidin-4-yl}piperidine]: the EC50 was > 10 µM.

As to `Cc1csc2ncnc(N3CCN(CC4CCCCC4)CC3)c12` [Example 247, 1-(cyclohexylmethyl)-4-{5-methylthieno[2,3-d]pyrimidin-4-yl}piperazine], the EC50 is > 10 µM.

As for `Cc1csc2ncnc(N3CCN(C(=O)OC(C)(C)C)CC3)c12` [Example 250, tert-butyl 4-{5-methylthieno[2,3-d]pyrimidin-4-yl}piperazine-1-carboxylate], the concentration giving a half-maximal response (EC50) was > 10 µM.

As to `Cc1csc2ncnc(N3CCC(NC(=O)OC(C)(C)C)C3)c12` (centres unmarked) [Example 251, tert-butyl N-(1-{5-methylthieno[2,3-d]pyrimidin-4-yl}pyrrolidin-3-yl)carbamate], the concentration for a half-maximal effect (EC50) was > 10 µM.

As to `Cc1csc2ncnc(N3CCN(c4ccccc4C#N)CC3)c12` [Example 252, 2-(4-{5-methylthieno[2,3-d]pyrimidin-4-yl}piperazin-1-yl)benzonitrile], the EC50 was > 10 µM.

`Cc1cccc(N2CCN(c3ncnc4scc(C)c34)CC2C)c1` (centres unmarked) [Example 255, 2-methyl-1-(3-methylphenyl)-4-{5-methylthieno[2,3-d]pyrimidin-4-yl}piperazine]: the concentration for a half-maximal effect (EC50) is > 10 µM.

As to `Cc1ccc(N2CCN(c3ncnc4scc(C)c34)CC2)c(C)c1` [Example 258, 1-(2,4-dimethylphenyl)-4-{5-methylthieno[2,3-d]pyrimidin-4-yl}piperazine], the EC50 is > 10 µM.

`Cc1csc2ncnc(N3CCN(CCN4CCOCC4)CC3)c12` [Example 269, 4-[2-(4-{5-methylthieno[2,3-d]pyrimidin-4-yl}piperazin-1-yl)ethyl]morpholine]: the EC50 is > 10 µM.

Turning to `Cc1csc2ncnc(N3CCC(N(C)C(=O)OC(C)(C)C)C3)c12` (centres unmarked) [Example 270, tert-butyl N-methyl-N-(1-{5-methylthieno[2,3-d]pyrimidin-4-yl}pyrrolidin-3-yl)carbamate], the EC50 was > 10 µM.

On to `CC(=O)c1ccc(N2CCN(c3ncnc4scc(C)c34)CC2)cc1` [Example 271, 1-[4-(4-{5-methylthieno[2,3-d]pyrimidin-4-yl}piperazin-1-yl)phenyl]ethan-1-one], for which the EC50 is > 10 µM.
